# Experiments:
# redroot pigweed = test: Test A pre-/postemergence greenhouse test; type: in vivo, Amaranthus retroflexus; conditions: for Plant response rating, Pigweed: 0 to 100 scale where 0 is no effect and 100 is complete control; for Pigweed plant response rating: 0 to 100 scale
# Outline: (§1)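 Seeds sown in a loam soil–sand blend got a preemergence directed soil spray of compound in a non-phytotoxic solvent mixture containing surfactant. Postemergence sprays of the same formulation went at the same time onto plants 2–10 cm tall at the one- to two-leaf stage. Injury was scored visually against untreated controls after about ten days in the greenhouse.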
# duck salad = test: Test C flooded paddy test; type: in vivo, Heteranthera limosa; conditions: Flood
# Outline: (§2)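 Visual injury ratings against untreated controls, taken 13 to 15 days after compound was added to paddy water standing 3 cm above the soil.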
# rice = test: Test C flooded paddy test; type: in vivo, Oryza sativa; conditions: Flood
# Outline: as §2
# morningglory = test: Test A pre-/postemergence greenhouse test; type: in vivo, Ipomoea spp.; conditions: for Plant response rating, Morningglory: 0 to 100 scale where 0 is no effect and 100 is complete control; for Morningglory plant response rating: 0 to 100 scale
# Outline: as §1
# wheat = test: Test A pre-/postemergence greenhouse test; type: in vivo, Triticum aestivum; conditions: for Plant response rating, Wheat: 0 to 100 scale where 0 is no effect and 100 is complete control; for Wheat plant response rating: 0 to 100 scale
# Outline: as §1
# umbrella sedge = test: Test C flooded paddy test; type: in vivo, Cyperus difformis; conditions: Flood
# Outline: as §2
# barnyardgrass [1] = test: Test A pre-/postemergence greenhouse test; type: in vivo, Echinochloa crus-galli; conditions: for Plant response rating, Barnyardgrass: 0 to 100 scale where 0 is no effect and 100 is complete control; for Barnyardgrass plant response rating: 0 to 100 scale
# Outline: as §1
# crabgrass = test: Test A pre-/postemergence greenhouse test; type: in vivo, Digitaria sanguinalis; conditions: for Plant response rating, Crabgrass, Large: 0 to 100 scale where 0 is no effect and 100 is complete control; for Crabgrass, Large plant response rating: 0 to 100 scale
# Outline: as §1
# velvetleaf = test: Test A pre-/postemergence greenhouse test; type: in vivo, Abutilon theophrasti; conditions: for Plant response rating, Velvetleaf: 0 to 100 scale where 0 is no effect and 100 is complete control; for Velvetleaf plant response rating: 0 to 100 scale
# Outline: as §1
# corn = test: Test A pre-/postemergence greenhouse test; type: in vivo, Zea mays; conditions: for Plant response rating, Corn: 0 to 100 scale where 0 is no effect and 100 is complete control; for Corn plant response rating: 0 to 100 scale
# Outline: as §1
# giant foxtail = test: Test A pre-/postemergence greenhouse test; type: in vivo, Setaria faberi; conditions: for Plant response rating, Foxtail, Giant: 0 to 100 scale where 0 is no effect and 100 is complete control; for Foxtail, Giant plant response rating: 0 to 100 scale
# Outline: as §1
# barnyardgrass [2] = test: Test C flooded paddy test; type: in vivo, Echinochloa crus-galli; conditions: Flood
# Outline: as §2
# [3] = Postemergence, 500 g ai/ha, 0 is no effect, 100 is complete control
# [4] = Preemergence, 125 g ai/ha, 0 no effect, 100 complete control
# [5] = 31 g ai/ha, scale 0 to 100 (0 no effect, 100 complete control)
# [6] = 62 g ai/ha, scale 0 to 100, 0 no effect, 100 complete control, 13 to 15 days
# [7] = 125 g ai/ha, scale 0 to 100, 0 no effect, 100 complete control, 13 to 15 days
# [8] = 250 g ai/ha, scale 0 to 100, 0 no effect, 100 complete control, 13 to 15 days
# [9] = Preemergence, 500 g ai/ha, 0 no effect, 100 complete control
# [10] = 62 g ai/ha, scale 0 to 100 (0 no effect, 100 complete control)
smiles,measurement,setting,value
Cn1nc(C(F)(F)F)c(CS(=O)(=O)c2ccc(F)c[n+]2[O-])c1Cl [Compound 53],"Plant response rating, Pigweed","redroot pigweed; Postemergence, 125 g ai/ha",20
same,Pigweed plant response rating,redroot pigweed; [3],50
same,Pigweed plant response rating,redroot pigweed; [4],100
same,"Plant response rating, Pigweed","redroot pigweed; Preemergence, 500 g ai/ha",100
same,"Plant response rating, Ducksalad",duck salad; [5],20
same,"Plant response rating, Ducksalad",duck salad; [6],60
same,"Plant response rating, Ducksalad",duck salad; [7],100
same,"Plant response rating, Ducksalad",duck salad; [8],100
same,"Plant response rating, Rice",rice; [5],0
same,"Plant response rating, Rice",rice; [6],25
same,"Plant response rating, Rice",rice; [7],60
same,"Plant response rating, Rice",rice; [8],75
same,"Plant response rating, Morningglory","morningglory; Postemergence, 125 g ai/ha",20
same,Morningglory plant response rating,morningglory; [3],30
same,Morningglory plant response rating,morningglory; [4],30
same,"Plant response rating, Morningglory","morningglory; Preemergence, 500 g ai/ha",70
same,"Plant response rating, Wheat","wheat; Postemergence, 125 g ai/ha",0
same,Wheat plant response rating,wheat; [3],0
same,Wheat plant response rating,wheat; [4],0
same,"Plant response rating, Wheat","wheat; Preemergence, 500 g ai/ha",0
same,"Plant response rating, Sedge, Umbrella",umbrella sedge; [5],20
same,"Plant response rating, Sedge, Umbrella",umbrella sedge; [7],80
same,"Plant response rating, Sedge, Umbrella",umbrella sedge; [8],90
same,"Plant response rating, Barnyardgrass","barnyardgrass [1]; Postemergence, 125 g ai/ha",60
same,Barnyardgrass plant response rating,barnyardgrass [1]; [3],80
same,Barnyardgrass plant response rating,barnyardgrass [1]; [4],50
same,"Plant response rating, Barnyardgrass","barnyardgrass [1]; Preemergence, 500 g ai/ha",80
same,"Plant response rating, Crabgrass, Large","crabgrass; Postemergence, 125 g ai/ha",40
same,"Crabgrass, Large plant response rating",crabgrass; [3],80
same,"Crabgrass, Large plant response rating",crabgrass; [4],60
same,"Plant response rating, Crabgrass, Large","crabgrass; Preemergence, 500 g ai/ha",90
same,"Plant response rating, Velvetleaf","velvetleaf; Postemergence, 125 g ai/ha",0
same,Velvetleaf plant response rating,velvetleaf; [3],0
same,Velvetleaf plant response rating,velvetleaf; [4],0
same,"Plant response rating, Velvetleaf","velvetleaf; Preemergence, 500 g ai/ha",0
same,"Plant response rating, Corn","corn; Postemergence, 125 g ai/ha",0
same,Corn plant response rating,corn; [3],0
same,Corn plant response rating,corn; [4],0
same,"Plant response rating, Corn","corn; Preemergence, 500 g ai/ha",0
same,"Plant response rating, Foxtail, Giant","giant foxtail; Postemergence, 125 g ai/ha",80
same,"Foxtail, Giant plant response rating",giant foxtail; [3],90
same,"Foxtail, Giant plant response rating",giant foxtail; [4],60
same,"Plant response rating, Foxtail, Giant","giant foxtail; Preemergence, 500 g ai/ha",80
same,"Plant response rating, Barnyardgrass",barnyardgrass [2]; [5],0
same,"Plant response rating, Barnyardgrass",barnyardgrass [2]; [6],0
same,"Plant response rating, Barnyardgrass",barnyardgrass [2]; [7],60
same,"Plant response rating, Barnyardgrass",barnyardgrass [2]; [8],80
Cn1nc(C(F)(F)C(F)(F)F)c(CS(=O)(=O)c2ccc(Cl)c[n+]2[O-])c1OCC(F)(F)F [Compound 100],"Plant response rating, Pigweed","redroot pigweed; Postemergence, 125 g ai/ha",0
same,Pigweed plant response rating,redroot pigweed; [3],60
same,Pigweed plant response rating,redroot pigweed; [4],60
same,Pigweed plant response rating,redroot pigweed; [9],80
same,"Plant response rating, Ducksalad",duck salad; [10],0
same,"Plant response rating, Ducksalad",duck salad; [8],30
same,"Plant response rating, Rice",rice; [10],0
same,"Plant response rating, Rice",rice; [8],0
same,"Plant response rating, Morningglory","morningglory; Postemergence, 125 g ai/ha",0
same,Morningglory plant response rating,morningglory; [3],20
same,Morningglory plant response rating,morningglory; [4],0
same,Morningglory plant response rating,morningglory; [9],10
same,"Plant response rating, Wheat","wheat; Postemergence, 125 g ai/ha",0
same,Wheat plant response rating,wheat; [3],0
same,Wheat plant response rating,wheat; [4],0
same,Wheat plant response rating,wheat; [9],10
same,"Plant response rating, Sedge, Umbrella",umbrella sedge; [10],0
same,"Plant response rating, Sedge, Umbrella",umbrella sedge; [8],0
same,"Plant response rating, Barnyardgrass","barnyardgrass [1]; Postemergence, 125 g ai/ha",40
same,Barnyardgrass plant response rating,barnyardgrass [1]; [3],60
same,Barnyardgrass plant response rating,barnyardgrass [1]; [4],0
same,Barnyardgrass plant response rating,barnyardgrass [1]; [9],90
same,"Plant response rating, Crabgrass, Large","crabgrass; Postemergence, 125 g ai/ha",40
same,"Crabgrass, Large plant response rating",crabgrass; [3],80
same,"Crabgrass, Large plant response rating",crabgrass; [4],40
same,"Crabgrass, Large plant response rating",crabgrass; [9],80
same,"Plant response rating, Velvetleaf","velvetleaf; Postemergence, 125 g ai/ha",0
same,Velvetleaf plant response rating,velvetleaf; [3],20
same,Velvetleaf plant response rating,velvetleaf; [4],0
same,Velvetleaf plant response rating,velvetleaf; [9],50
same,"Plant response rating, Corn","corn; Postemergence, 125 g ai/ha",0
same,Corn plant response rating,corn; [3],0
same,Corn plant response rating,corn; [4],0
same,Corn plant response rating,corn; [9],0
same,"Plant response rating, Foxtail, Giant","giant foxtail; Postemergence, 125 g ai/ha",50
same,"Foxtail, Giant plant response rating",giant foxtail; [3],90
same,"Foxtail, Giant plant response rating",giant foxtail; [4],60
same,"Foxtail, Giant plant response rating",giant foxtail; [9],90
same,"Plant response rating, Barnyardgrass",barnyardgrass [2]; [10],0
same,"Plant response rating, Barnyardgrass",barnyardgrass [2]; [8],0
